Assay results reported in the SangsterLogP compilation.

| SMILES | logP |
| --- | --- |
| O=c1[nH]cnc2ccccc12 | 0.77 |

remark: another data set of the same source

| SMILES | logP |
| --- | --- |
| O=C1NC(=O)C(c2ccccc2)C(=O)N1 | -0.17 |
| c1ccc(-c2nc3ccccc3o2)cc1 | 3.67 |
| O=C1CC(c2ccccc2)c2ccccc2N1 (stereo unspecified) | 2.79 |
| c1ccc(-c2ncc3ccccc3n2)cc1 | 3.42 |
| c1ccc(-c2c[nH]nn2)cc1 | 1.91 |
| O=C1CCC(c2ccccc2)CC1 | 2.3 |
| c1ccc(C2CCNCC2)cc1 | 2.39 |
| c1ccc(-c2cnc3ccccc3n2)cc1 | 3.48 |
| O=c1[nH]c2ccccc2cc1-c1ccccc1 | 2.99 |
| O=C1CCc2ccccc2N1 | 1.34 |
| O=C1Nc2ccccc2CC1c1ccccc1 (stereo unspecified) | 2.93 |
| c1ccc(-c2nc[nH]n2)cc1 | 1.54 |
| O=C1Nc2ccccc2C1c1ccccc1 (stereo unspecified) | 2.59 |
| c1ccc(-c2nc3ccccc3[nH]2)cc1 | 3.3 |
| O=C1NC(=O)c2cc(-c3ccccc3)ccc21 | 2.97 |
| c1ccc(-c2ccncc2)cc1 | 2.58 |
| O=c1[nH]nc(-c2ccccc2)c2ccccc12 | 2.48 |
| c1ccc(C2CCCN2)cc1 (stereo unspecified) | 1.89 |
| c1ccc(-c2nccs2)cc1 | 2.77 |
| O=C1C=CC(=O)C(c2ccccc2)=C1 | 1.95 |
